In PubChem BioAssay (NCI):
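Growth conditions: 96-well plates. Treatment: test compound, 48 hours, 5 concentrations. Analysis: linear interpolation between bracketing concentrations; unreached endpoints set to highest concentration. GI50 = concentration required for 50% inhibition of growth. TGI: concentration producing complete growth inhibition.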

How the values were obtained:
Experiment in all cases: inhibition of tumour cell growth, NCI panel, 48 h
BT-549 breast = tested on: BT-549 breast
DU-145 prostate = tested on: DU-145 prostate
NCI/ADR-RES ovarian = tested on: NCI/ADR-RES ovarian
786-0 renal = tested on: 786-0 renal
SR leukemia = tested on: SR leukemia
A498 renal = tested on: A498 renal
IGROV1 ovarian = tested on: IGROV1 ovarian
LOX IMVI melanoma = tested on: LOX IMVI melanoma
SF-295 CNS = tested on: SF-295 CNS
CCRF-CEM leukemia = tested on: CCRF-CEM leukemia
UACC-257 melanoma = tested on: UACC-257 melanoma
NCI-H226 lung = tested on: NCI-H226 lung
SNB-75 CNS = tested on: SNB-75 CNS
T-47D breast = tested on: T-47D breast
A549 NSCLC = tested on: A549 NSCLC
SW-620 colon = tested on: SW-620 colon
PC-3 prostate = tested on: PC-3 prostate
SK-MEL-5 melanoma = tested on: SK-MEL-5 melanoma
HCC-2998 colon = tested on: HCC-2998 colon
UO-31 renal = tested on: UO-31 renal
MDA-MB-231 breast = tested on: MDA-MB-231 breast
OVCAR-8 ovarian = tested on: OVCAR-8 ovarian
M14 melanoma = tested on: M14 melanoma
RPMI-8226 leukemia = tested on: RPMI-8226 leukemia
HOP-62 NSCLC = tested on: HOP-62 NSCLC
KM12 colon = tested on: KM12 colon
HOP-92 NSCLC = tested on: HOP-92 NSCLC
SK-OV-3 ovarian = tested on: SK-OV-3 ovarian
EKVX NSCLC = tested on: EKVX NSCLC
SNB-19 CNS = tested on: SNB-19 CNS
OVCAR-5 ovarian = tested on: OVCAR-5 ovarian
NCI-H522 lung = tested on: NCI-H522 lung
RXF 393 renal = tested on: RXF 393 renal
COLO 205 colon = tested on: COLO 205 colon
NCI-H460 lung = tested on: NCI-H460 lung
SF-539 CNS = tested on: SF-539 CNS
OVCAR-4 ovarian = tested on: OVCAR-4 ovarian
HS 578T breast = tested on: HS 578T breast
SF-268 CNS = tested on: SF-268 CNS
K-562 leukemia = tested on: K-562 leukemia
MCF7 breast = tested on: MCF7 breast
UACC-62 melanoma = tested on: UACC-62 melanoma
HCT-15 colon = tested on: HCT-15 colon
U251 CNS = tested on: U251 CNS
MDA-MB-435 = tested on: MDA-MB-435
TK-10 renal = tested on: TK-10 renal
HL-60(TB) leukemia = tested on: HL-60(TB) leukemia
HCT-116 colon = tested on: HCT-116 colon
MOLT-4 leukemia = tested on: MOLT-4 leukemia
SK-MEL-28 melanoma = tested on: SK-MEL-28 melanoma
MALME-3M melanoma = tested on: MALME-3M melanoma
HT29 colon = tested on: HT29 colon
ACHN renal = tested on: ACHN renal
SK-MEL-2 melanoma = tested on: SK-MEL-2 melanoma
CAKI-1 renal = tested on: CAKI-1 renal
SN12C renal = tested on: SN12C renal

CC1(C)CC[C@]23CC[C@]4(C)[C@H](CC[C@@H]5[C@@]6(C)CC[C@H](NCO)C(C)(C)[C@@H]6CC[C@]54C)[C@H]2[C@H]1OC3
GI50 (BT-549 breast): 15.6 µM | TGI (BT-549 breast): 28.9 µM | GI50 (DU-145 prostate): 14.1 µM | TGI (DU-145 prostate): 32 µM | GI50 (NCI/ADR-RES ovarian): 14 µM | TGI (NCI/ADR-RES ovarian): 30.9 µM | GI50 (786-0 renal): 3.77 µM | TGI (786-0 renal): 15.3 µM | GI50 (SR leukemia): 0.741 µM | TGI (SR leukemia): 6.71 µM | GI50 (A498 renal): 14.1 µM | TGI (A498 renal): 27.1 µM | GI50 (IGROV1 ovarian): 7.56 µM | TGI (IGROV1 ovarian): 22.6 µM | GI50 (LOX IMVI melanoma): 1.52 µM | TGI (LOX IMVI melanoma): 2.95 µM | GI50 (SF-295 CNS): 14.4 µM | TGI (SF-295 CNS): 28.7 µM | GI50 (CCRF-CEM leukemia): 5.93 µM | TGI (CCRF-CEM leukemia): > 100 µM | GI50 (UACC-257 melanoma): 14.7 µM | TGI (UACC-257 melanoma): 28.3 µM | GI50 (NCI-H226 lung): 14.9 µM | TGI (NCI-H226 lung): 34 µM | GI50 (SNB-75 CNS): 16.8 µM | TGI (SNB-75 CNS): 33.4 µM | GI50 (T-47D breast): 7.72 µM | TGI (T-47D breast): 28.9 µM | GI50 (A549 NSCLC): 4.39 µM | TGI (A549 NSCLC): 18.1 µM | GI50 (SW-620 colon): 1.7 µM | TGI (SW-620 colon): 3.7 µM | GI50 (PC-3 prostate): 10.8 µM | TGI (PC-3 prostate): 31.6 µM | GI50 (SK-MEL-5 melanoma): 15.3 µM | TGI (SK-MEL-5 melanoma): 28.6 µM | GI50 (HCC-2998 colon): 1.95 µM | TGI (HCC-2998 colon): 4.17 µM | GI50 (UO-31 renal): 13.3 µM | TGI (UO-31 renal): 28.1 µM | GI50 (MDA-MB-231 breast): 4 µM | TGI (MDA-MB-231 breast): 17.4 µM | GI50 (OVCAR-8 ovarian): 3.25 µM | TGI (OVCAR-8 ovarian): 11.9 µM | GI50 (M14 melanoma): 11.5 µM | TGI (M14 melanoma): 23.7 µM | GI50 (RPMI-8226 leukemia): 3.64 µM | TGI (RPMI-8226 leukemia): 18.7 µM | GI50 (HOP-62 NSCLC): 15.5 µM | TGI (HOP-62 NSCLC): 35.7 µM | GI50 (KM12 colon): 17.5 µM | TGI (KM12 colon): 31.3 µM | GI50 (HOP-92 NSCLC): 2.82 µM | TGI (HOP-92 NSCLC): 18.3 µM | GI50 (SK-OV-3 ovarian): 15 µM | TGI (SK-OV-3 ovarian): 31.4 µM | GI50 (EKVX NSCLC): 16.9 µM | TGI (EKVX NSCLC): 32.5 µM | GI50 (SNB-19 CNS): 16.7 µM | TGI (SNB-19 CNS): 36.6 µM | GI50 (OVCAR-5 ovarian): 11.8 µM | TGI (OVCAR-5 ovarian): 24.1 µM | GI50 (NCI-H522 lung): 16.3 µM | TGI (NCI-H522 lung): 32 µM | GI50 (RXF 393 renal): 6.16 µM | TGI (RXF 393 renal): 20.4 µM | GI50 (COLO 205 colon): 2.06 µM | TGI (COLO 205 colon): 4.18 µM | GI50 (NCI-H460 lung): 2.24 µM | TGI (NCI-H460 lung): 5.03 µM | GI50 (SF-539 CNS): 12.3 µM | TGI (SF-539 CNS): 26.5 µM | GI50 (OVCAR-4 ovarian): 14.3 µM | TGI (OVCAR-4 ovarian): 31 µM | GI50 (HS 578T breast): 15.3 µM | TGI (HS 578T breast): 42 µM | GI50 (SF-268 CNS): 16.3 µM | TGI (SF-268 CNS): 37.9 µM | GI50 (K-562 leukemia): 2.35 µM | TGI (K-562 leukemia): 6.9 µM | GI50 (MCF7 breast): 2.25 µM | TGI (MCF7 breast): 6.4 µM | GI50 (UACC-62 melanoma): 16.9 µM | TGI (UACC-62 melanoma): 31.5 µM | GI50 (HCT-15 colon): 2.9 µM | TGI (HCT-15 colon): 10.9 µM | GI50 (U251 CNS): 2.5 µM | TGI (U251 CNS): 8.16 µM | GI50 (MDA-MB-435): 12.9 µM | TGI (MDA-MB-435): 25.6 µM | GI50 (TK-10 renal): 22.6 µM | TGI (TK-10 renal): 38 µM | GI50 (HL-60(TB) leukemia): 1.58 µM | TGI (HL-60(TB) leukemia): 4.62 µM | GI50 (HCT-116 colon): 3.7 µM | TGI (HCT-116 colon): 12.9 µM | GI50 (MOLT-4 leukemia): 3.16 µM | TGI (MOLT-4 leukemia): 16.1 µM | GI50 (SK-MEL-28 melanoma): 15.5 µM | TGI (SK-MEL-28 melanoma): 28.9 µM | GI50 (MALME-3M melanoma): 16 µM | TGI (MALME-3M melanoma): 34.3 µM | GI50 (HT29 colon): 5.25 µM | TGI (HT29 colon): 17.4 µM | GI50 (ACHN renal): 5.01 µM | TGI (ACHN renal): 17.1 µM | GI50 (SK-MEL-2 melanoma): 14.2 µM | TGI (SK-MEL-2 melanoma): 27.2 µM | GI50 (CAKI-1 renal): 10.2 µM | TGI (CAKI-1 renal): 23.3 µM | GI50 (SN12C renal): 12 µM | TGI (SN12C renal): 30 µM
